Target: T1, SIRT1 (Homo sapiens, UniProt Q96EB6)
T1 sequence (Q96EB6 1-747): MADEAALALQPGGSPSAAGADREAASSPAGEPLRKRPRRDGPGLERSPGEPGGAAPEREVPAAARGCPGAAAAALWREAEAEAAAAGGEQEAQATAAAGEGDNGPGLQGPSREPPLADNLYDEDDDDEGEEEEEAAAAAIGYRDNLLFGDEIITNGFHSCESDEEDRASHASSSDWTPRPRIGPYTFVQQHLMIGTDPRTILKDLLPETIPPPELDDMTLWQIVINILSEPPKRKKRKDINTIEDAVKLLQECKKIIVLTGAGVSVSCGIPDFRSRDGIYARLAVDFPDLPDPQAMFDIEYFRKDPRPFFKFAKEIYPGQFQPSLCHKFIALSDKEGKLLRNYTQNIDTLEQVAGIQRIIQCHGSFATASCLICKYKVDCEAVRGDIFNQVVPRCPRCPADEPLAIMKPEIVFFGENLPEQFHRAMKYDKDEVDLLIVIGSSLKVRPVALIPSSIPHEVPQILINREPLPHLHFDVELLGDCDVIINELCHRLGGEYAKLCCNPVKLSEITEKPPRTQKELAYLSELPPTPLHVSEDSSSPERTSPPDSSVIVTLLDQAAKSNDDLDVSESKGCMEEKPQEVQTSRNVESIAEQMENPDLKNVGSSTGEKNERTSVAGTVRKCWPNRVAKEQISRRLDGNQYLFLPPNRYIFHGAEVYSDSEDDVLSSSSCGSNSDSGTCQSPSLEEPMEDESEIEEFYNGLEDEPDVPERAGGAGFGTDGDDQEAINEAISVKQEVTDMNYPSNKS
Assay: SIRT1 mass spectrometry (MS) based deacetylation assay; as to FOLD ACT. MS: test concentration or dose not given here
Format: biochemical
Settings: for EC50: SIRT1 activation, mass spectrometry assay, read-out: ED50 MS ASSAY; for FOLD ACT. MS: SIRT1 fold activation as determined by MS

SMILES: CC(C)(C)OC(=O)CNCc1csc2nc(-c3ccccc3NC(=O)c3cnc4ccccc4n3)cn12 [Compound 711]
- EC50: 5 to 50 µM
- FOLD ACT. MS: B (B (Fold Activation <250%))

SMILES: O=C(Nc1ccccc1-c1cn2c(CN3CCC(F)CC3)csc2n1)c1cnc2ccccc2n1 [Compound 714]
- EC50: 5 to 50 µM
- FOLD ACT. MS: B (B (Fold Activation <250%))

SMILES: O=C(Nc1ccccc1-c1cn2c(CN3CCSC3)csc2n1)c1cnc2ccccc2n1 [Compound 715]
- EC50: < 5 µM
- FOLD ACT. MS: B (B (Fold Activation <250%))

SMILES: NC1CCN(Cc2csc3nc(-c4ccccc4NC(=O)c4cnc5ccccc5n4)cn23)CC1 [Compound 716]
- EC50: < 5 µM
- FOLD ACT. MS: A (A (Fold activation >250%))

SMILES: O=C(Nc1ccccc1-c1cn2c(CN3CC(F)(F)C3)csc2n1)c1cnc2ccccc2n1 [Compound 717]
- EC50: 5 to 50 µM
- FOLD ACT. MS: B (B (Fold Activation <250%))

SMILES: O=C(Nc1ccccc1-c1cn2c(C(=O)O)csc2n1)c1cnc2ccccc2n1 [Compound 719]
- EC50: 5 to 50 µM
- FOLD ACT. MS: A (A (Fold activation >250%))

SMILES: O=C(O)Cc1csc2nc(-c3ccccc3NC(=O)c3cnc4ccccc4n3)cn12 [Compound 721]
- EC50: 5 to 50 µM
- FOLD ACT. MS: A (A (Fold activation >250%))

SMILES: COc1cc(OC)cc(C(=O)Nc2ccccc2-c2nc3cc(CN(C)C)cnc3s2)c1 [Compound 722]
- EC50: < 5 µM
- FOLD ACT. MS: A (A (Fold activation >250%))

SMILES: COc1cc(OC)cc(C(=O)Nc2ccccc2-c2nc3c(CN4CCNCC4)ccnc3s2)c1 [Compound 723]
- EC50: 5 to 50 µM
- FOLD ACT. MS: A (A (Fold activation >250%))

SMILES: O=C(Nc1ccccc1-c1nc2cc(CN3CCOCC3)cnc2s1)c1ccc2ccccc2n1 [Compound 724]
- EC50: < 5 µM
- FOLD ACT. MS: A (A (Fold activation >250%))

SMILES: COc1cc(OC)cc(C(=O)Nc2ccccc2-c2nc3cc(CN4CCN(C)CC4)cnc3s2)c1 [Compound 725]
- EC50: < 5 µM
- FOLD ACT. MS: A (A (Fold activation >250%))

SMILES: COc1cc(OC)cc(C(=O)Nc2ccccc2-c2nc3ccc(CN4CCNCC4)nc3s2)c1 [Compound 726]
- EC50: < 5 µM
- FOLD ACT. MS: A (A (Fold activation >250%))

SMILES: Cc1ccc(C(=O)Nc2ccccc2-c2nc3ccc(CN4CCNCC4)nc3s2)cc1C [Compound 727]
- EC50: < 5 µM
- FOLD ACT. MS: A (A (Fold activation >250%))

SMILES: O=C(Nc1ccccc1-c1nc2ccc(CN3CCNCC3)nc2s1)c1ccc(F)c(F)c1 [Compound 728]
- EC50: 5 to 50 µM
- FOLD ACT. MS: A (A (Fold activation >250%))

SMILES: O=C(Nc1ccccc1-c1nc2ccc(CN3CCNCC3)nc2s1)c1ccc2ccccc2n1 [Compound 729]
- EC50: < 5 µM
- FOLD ACT. MS: A (A (Fold activation >250%))

SMILES: O=C(Nc1ccccc1-c1nc2cc(CN3CCNCC3)cnc2s1)c1ccc2ncsc2c1 [Compound 730]
- EC50: 5 to 50 µM
- FOLD ACT. MS: A (A (Fold activation >250%))

SMILES: O=C(Nc1ccccc1-c1nc2cc(CN3CCNCC3)cnc2s1)c1cccc(C(F)(F)F)c1 [Compound 731]
- EC50: 5 to 50 µM
- FOLD ACT. MS: A (A (Fold activation >250%))

SMILES: O=C(Nc1ccccc1-c1nc2cc(CN3CCNCC3)cnc2s1)c1cc(-c2ccccc2)no1 [Compound 732]
- EC50: < 5 µM
- FOLD ACT. MS: B (B (Fold Activation <250%))

SMILES: O=C(Nc1ccccc1-c1cn2c(CN3CCNCC3)csc2n1)c1cccc(-c2cc[nH]n2)c1 [Compound 733]
- EC50: < 5 µM
- FOLD ACT. MS: A (A (Fold activation >250%))

SMILES: COc1ccc(-c2cc(C(=O)Nc3ccccc3-c3cn4c(CN5CCNCC5)csc4n3)[nH]n2)cc1 [Compound 735]
- EC50: < 5 µM
- FOLD ACT. MS: A (A (Fold activation >250%))

SMILES: COc1ccc(-c2ccc(C(=O)Nc3ccccc3-c3cn4c(CN5CCNCC5)csc4n3)o2)cc1 [Compound 736]
- EC50: < 5 µM
- FOLD ACT. MS: A (A (Fold activation >250%))

SMILES: O=C(Nc1ccccc1-c1cn2c(CN3CCNCC3)csc2n1)c1cccc(SC(F)F)c1 [Compound 737]
- EC50: < 5 µM
- FOLD ACT. MS: A (A (Fold activation >250%))

— patent publication US8044198B2, “Sirtuin modulating compounds” (Sirtris Pharmaceuticals, Inc., priority 2005, dated 2011)
